Data published in patent US12606564B2, “Adenosine receptor antagonist compounds” (ILDONG PHARMACEUTICAL CO., LTD., priority 2019, dated 2026).

Assays:
[1] = target: T1, Human recombinant adenosine A1 receptors (Homo sapiens, UniProt P30542); assay: Human adenosine A1 receptor binding assay with [3H] DPCPX (purine compounds, Example 2.2); conditions: membranes of CHO-K1 cells
T1 construct: expressed in transfected cells; host or cells: CHO-K1, membrane preparation
T1 sequence (P30542 1-326): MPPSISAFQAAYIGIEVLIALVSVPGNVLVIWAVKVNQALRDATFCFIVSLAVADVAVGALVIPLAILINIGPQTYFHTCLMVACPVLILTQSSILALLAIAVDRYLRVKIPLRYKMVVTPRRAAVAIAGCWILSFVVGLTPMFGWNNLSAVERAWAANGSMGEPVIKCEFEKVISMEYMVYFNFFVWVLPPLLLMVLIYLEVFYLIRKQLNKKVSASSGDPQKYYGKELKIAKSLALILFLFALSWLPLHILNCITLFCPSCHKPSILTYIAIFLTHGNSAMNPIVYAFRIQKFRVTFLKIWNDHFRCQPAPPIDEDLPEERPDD
Procedure: Test compound is weighed, dissolved in DMSO to make a stock solution of 10 mM, diluted with DMSO to prepare working solutions, then 100-fold diluted to the indicated concentrations. Human recombinant adenosine A1 receptors expressed in CHO-K1 cells were used to prepare membranes in incubation buffer (20 mM HEPES (4-(2-hydroxyethyl)-1-piperazineethanesulfonic acid) pH 7.4, 10 mM MgCl2, 100 mM NaCl). Test compound or vehicle (2.2 μL) was added in 200 μL of membranes and incubated with 20 μL of 1 nM [^3H] DPCPX (8-cyclopentyl-1,3-dipropylxanthine) for 90 minutes at 25° C. Non-specific binding was estimated in the presence of 100 μM R(−)-PIA ((R)—N-(1-methyl-2-phenylethyl)adenosine). The incubation was stopped by vacuum filtration onto 0.3% PEI (polyethylenimine) presoaked GF/B filters using a harvester followed by four washes with ice-cold 50 mM Tris-HCl, pH 7.4, and the radioactivity on GF/B filtermats counted in a scintillation counter (PerkinElmer Topcount™) to determine [^3H] DPCPX specifically bound. Final concentration of vehicle DMSO is 1%. Data is fitted using the non-linear curve fitting routines in Meth-IQ software (ID Business Solutions Ltd., UK).
The binding affinity of selected compounds against A1 receptor was assessed using the binding assay described above.

[2] = target: human recombinant A2AR (Homo sapiens, UniProt P29274); assay: Human A2A functional cAMP assay in human recombinant A2AR stable cell line (HEK293)
Procedure: cAMP assay was performed on human recombinant A2AR stable cell line (HEK293). The cells were cultured at 37° C. and 5% CO2 with culture medium (90% DMEM+10% FBS+500 μg/mL G418). […] Then, 100 nL compounds were transferred by Echo machine with 12 doses respectively. Cells were collected with stimulation buffer (1×HBSS with 5 mM HEPES+0.05 mM IBMX+0.1% BSA) and plated the cells at the density of 5,000 cells/well, centrifuged at 600 rpm for 3 min and then incubation with compounds at room temperature for 60 min. After that, 5 μL 4× Eu-cAMP tracer solution and 5 μL 4× ULight™-anti-cAMP solution were added into the cells, centrifuged at 600 rpm for 3 min and incubated for 60 min. cAMP signal was detected with Envision. GraphPad Prism (version 6.0) was used for the data analysis.
The A2A receptor antagonistic activity of selected compounds was assessed using the cAMP assay described above.

[3] = target: Human recombinant adenosine A2A receptor (Homo sapiens, UniProt P29274); assay: A2A receptor (A2AR) SPA binding assay with [3H] SCH58261; design: expressed in transfected cells; host or cells: HEK293 (HKE293 [sic]), membrane preparation; conditions: [3H] SCH58261 radioligand
Procedure: Test compound is weighed, then dissolved in 100% DMSO to prepare 20 mM stock solution. Dilute the stock solution with DMSO into 100× final concentration, and then use this DMSO solution to perform 3-fold serial dilution for totally 12 concentrations with DMSO. 10-fold diluting the serial dilutions with assay buffer to the working concentrations. […] SCH58261 as the radioligand. The assay buffer is prepared with DPBS containing 10 mM MgCl2. 5 μL of compound working solutions (a total of 12 concentrations starting from 1 or 3 μM, 1/3 dilution) is transferred to the wells by the 12-channel pipette. A2AR membrane is pre-incubated with adenosine deaminase for 15 min at room temperature. Then SPA beads are added and the membrane-bead suspension mixture is incubated for 30 min at room temperature with the rotary mixer. […] SCH58261 radioligand solution. Final concentration of DMSO in the A2AR SPA binding assay is 1%. Sealing the plates and incubate for 1 hr at 27° C. with vigorous mixing on a plate shaker. After 1 hr, centrifuge the plate (1000 rpm, 1 min), and settle the plate for 5 min prior to counting. The signal of radiation is measured by the Microbeta2. […] Non-specific binding refers to the wells containing reaction system with the presence of 100 μM SCH58261. The dose-response curve is fitted with GraphPad Prism 5 and IC50 values are calculated by log(inhibitor) vs. response—Variable slope program with the following formula: Y=Bottom+(Top−Bottom)/(1+10^[…] ligand concentration used in assay/radio ligand Kd)
The binding affinity of selected compounds against A2A receptor was assessed using the SPA binding assay described above.

Chain of human recombinant A2AR (P29274 whole entry): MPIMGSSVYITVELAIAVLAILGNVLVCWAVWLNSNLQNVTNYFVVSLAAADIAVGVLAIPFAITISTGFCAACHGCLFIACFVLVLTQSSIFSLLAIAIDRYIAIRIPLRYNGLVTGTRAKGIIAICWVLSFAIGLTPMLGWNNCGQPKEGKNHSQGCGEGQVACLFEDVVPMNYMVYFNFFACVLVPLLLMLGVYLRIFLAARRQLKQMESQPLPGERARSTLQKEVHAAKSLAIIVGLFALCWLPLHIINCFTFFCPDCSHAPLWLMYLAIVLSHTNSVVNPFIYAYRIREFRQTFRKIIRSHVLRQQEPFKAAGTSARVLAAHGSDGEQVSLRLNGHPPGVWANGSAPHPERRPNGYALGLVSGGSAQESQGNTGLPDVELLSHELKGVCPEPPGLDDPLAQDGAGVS
Chain of Human recombinant adenosine A2A receptor (P29274 whole entry): as above

SMILES | Ki [1] [nM] | IC50 [2] [nM] | Ki [3] [nM]
N#Cc1cccc(-c2nc(N)nc3c2ncn3Cc2ccc(N)cc2)c1 [Compound 101, 3-(2-amino-9-(4-aminobenzyl)-9H-purin-6-yl) benzonitrile] | > 1000 | > 1000 | 10 to 100
N#Cc1cccc(-c2nc(N)nc3c2ncn3Cc2ccc(N)cc2)c1F [Compound 102, 3-(2-amino-9-(4-aminobenzyl)-9H-purin-6-yl)-2-fluorobenzonitrile] | – | – | 100 to 500
N#Cc1cccc(-c2nc(N)nc3c2ncn3Cc2ccc(N)cc2F)c1F [Compound 103, 3-(2-amino-9-(4-amino-2-fluorobenzyl)-9H-purin-6-yl)-2-fluorobenzonitrile] | > 1000 | > 1000 | 10 to 100
Cc1cc(Cn2cnc3c(-c4cccc(C#N)c4)nc(N)nc32)ccc1N [Compound 104, 3-(2-amino-9-(4-amino-3-methylbenzyl)-9H-purin-6-yl)benzonitrile] | > 1000 | < 300 | < 10
Cc1c(C#N)cccc1-c1nc(N)nc2c1ncn2Cc1ccc(N)cc1 [Compound 105, 3-(2-amino-9-(4-aminobenzyl)-9H-purin-6-yl)-2-methylbenzonitrile] | – | – | > 500
Cc1cc(Cn2cnc3c(-c4cccc(C#N)c4F)nc(N)nc32)ccc1N [Compound 106, 3-(2-amino-9-(4-amino-3-methylbenzyl)-9H-purin-6-yl)-2-fluorobenzonitrile] | > 1000 | – | 10 to 100
N#Cc1cccc(-c2nc(N)nc3c2ncn3Cc2c(F)cc(N)cc2F)c1 [Compound 107, 3-(2-amino-9-(4-amino-2,6-difluorobenzyl)-9H-purin-6-yl)benzonitrile] | ≤ 300 | < 300 | < 10
N#Cc1cccc(-c2nc(N)nc3c2ncn3Cc2c(F)cc(N)cc2F)c1F [Compound 108, 3-(2-amino-9-(4-amino-2,6-difluorobenzyl)-9H-purin-6-yl)-2-fluorobenzonitrile] | 300 to 1000 | 300 to 1000 | 10 to 100
N#Cc1cccc(-c2nc(N)nc3c2ncn3Cc2ccc(N)cc2F)c1 [Compound 109, 3-(2-amino-9-(4-amino-2-fluorobenzyl)-9H-purin-6-yl)benzonitrile] | 300 to 1000 | < 300 | < 10
N#Cc1cccc(-c2nc(N)nc3c2ncn3Cc2ccc(N)c(C(F)(F)F)c2)c1 [Compound 110, 3-[2-amino-9-[[4-amino-3-(trifluoromethyl)phenyl]methyl]purin-6-yl]benzonitrile] | 300 to 1000 | < 300 | < 10

Results, then the compound that gave them:

Ki [1] [nM] | IC50 [2] [nM] | Ki [3] [nM] | SMILES
> 1000 | – | 10 to 100 | Cc1c(C#N)cccc1-c1nc(N)nc2c1ncn2Cc1c(F)cccc1F [Compound 114, 3-(2-amino-9-(2,6-difluorobenzyl)-9H-purin-6-yl)-2-methylbenzonitrile]
– | – | > 500 | N#Cc1cc(-c2nc(N)nc3c2ncn3Cc2ccc(N)cc2)ccn1 [Compound 118, 4-[2-amino-9-[(4-aminophenyl)methyl]purin-6-yl]pyridine-2-carbonitrile]
– | – | 100 to 500 | N#Cc1cccc(-c2nc(N)nc3c2ncn3Cc2ccc(N)cc2F)n1 [Compound 119, 6-[2-amino-9-[(4-amino-2-fluoro-phenyl)methyl]purin-6-yl]pyridine-2-carbonitrile]
– | – | 100 to 500 | N#Cc1cncc(-c2nc(N)nc3c2ncn3Cc2c(F)cc(N)cc2F)c1 [Compound 125, 5-[2-amino-9-[(4-amino-2,6-difluoro-phenyl)methyl]purin-6-yl]pyridine-3-carbonitrile]
– | – | 10 to 100 | N#Cc1cc(-c2nc(N)nc3c2ncn3Cc2c(F)cc(N)cc2F)ccn1 [Compound 126, 4-[2-amino-9-[(4-amino-2,6-difluoro-phenyl)methyl]purin-6-yl]pyridine-2-carbonitrile]
– | – | 10 to 100 | N#Cc1cc(-c2nc(N)nc3c2ncn3Cc2c(F)cccc2F)ccn1 [Compound 134, 4-[2-amino-9-[(2,6-difluorophenyl)methyl]purin-6-yl]pyridine-2-carbonitrile]
